Reference: patent publication EP1009837B1 (priority 1997, dated 1999)

How the values were obtained:
[1] = system: S. cerevisiae; conditions: typical low concentration; background statement; cited from earlier work
[2] = target: FY23WT; conditions: strain FY23WT (grande parent); batch culture 30°C; exogenous ethanol 0-10% (w/v); µ corrected for viability
Protocol: (§1) Strain-specific ethanol tolerances were determined in batch cultures in specially adapted 100ml Erienmeyer flasks (called Klett Flasks) in combination with the Klett Summerson colorimeter and a green filter (Klett Summerson, USA). Cultures were grown to early exponential phase overnight and then split into 18ml aliquots to which 2ml of either sterile distilled water or ethanol solution were added to the aliquots giving final concentrations of 0, 2,3,4,6 and 10% (w/v) ethanol. Each concentration was carried out in triplicate and hourly measurements were made of cell density. A 1ml sample was extracted from the flask, diluted and plated onto YPD for a viable cell count. The remainder of the sample was centrifuged (15,000 rpm, 4°C, 5 min) and the supernatant frozen for subsequent analysis of ethanol concentration by GC.
(§2) All four members of the isogenic series (FY23WT, FY23Δpet191, FY23Δcox5a and FY23ρ^0) were grown in batch culture at 30°C and ethanol, at various concentrations, was introduced at the beginning of the exponential phase. Cell growth was followed for eight hours measuring optical densities with a Klett meter.
(§3) Graphs were plotted of loge Klett units against elapsed time and linear regression analysis was performed to calculate culture specific growth rates, µ. The effect of ethanol on the growth rate of the 4 members of the series was analysed by comparing relative growth rates at each ethanol concentration, and calculating these as a percentage of the growth rate in the absence of ethanol.
(§4) Ethanol inhibition kinetics are thought to follow those of non-competitive inhibition and can be modeled using a variant of the Monod equation. From the specific growth rate values calculated, it is possible to determine values of Ki by inserting them into the rearranged equation [µm/µi - 1 = I. 1/Ki]. […] The initial values of µ calculated are µapparent values determined from the growth of a culture containing both living and dead cells.

[3] = system: FY23Δcox5a
Protocol: as §1, §2, §3, §4

[4] = system: FY23Δpet191
Protocol: as §1, §2, §3, §4

[5] = system: FY23ρ^0
Protocol: as §1, §2, §3, §4

Structure (SMILES) | concentration to which S. cerevisiae is sensitive [1] | Ki (true growth rate) [2] | ethanol tolerance relative to the wild-type strain ([3]; FY23Δcox5a, Ki as percentage of FY23WT) | Ki (true growth rate) ([3]; strain FY23Δcox5a (nuclear petite), batch culture 30°C, µ corrected for viability) | Ki as percentage of the wild-type value ([4]; FY23Δpet191, Ki relative to FY23WT) | Ki (true growth rate) ([4]; strain FY23Δpet191 (nuclear petite), batch culture 30°C, µ corrected for viability) | ethanol tolerance relative to FY23 WT ([5]; mitochondrial petite, Ki as percentage of FY23WT) | Ki (true growth rate) ([5]; strain FY23ρ^0 (mitochondrial petite), batch culture 30°C, µ corrected for viability)
C[C@@H]1C[C@@H]([C@H](O)CC2CC(=O)NC(=O)C2)C(=O)[C@@H](C)C1 [cycloheximide] | ~0.2 µg/mL | – | – | – | – | – | – | –
CCO [ethanol] | – | 2.30 % (w/v) | 86% | 1.94 % (w/v) | approximately 95% | 2.14 % (w/v) | 76% | 1.71 % (w/v)
